Measurements as given in US11202792B2, “CD99 inhibitors and their uses” (GEORGETOWN UNIVERSITY, priority 2016, dated 2021).

Tests used:
[1] = molecular target: T1, recombinant human full-length CD99 (Homo sapiens, UniProt P14209); experiment: SPR binding kinetics, recombinant human full-length CD99 (Biacore T200); details: full-length CD99 produced in HEK293 cells, immobilized by amine coupling
T1 construct: Purified recombinant human full-length CD99 produced in HEK293 cells was purchased from Origene; purchased Origene #TP304056; host or cells: HEK293
T1 sequence (P14209 23-185): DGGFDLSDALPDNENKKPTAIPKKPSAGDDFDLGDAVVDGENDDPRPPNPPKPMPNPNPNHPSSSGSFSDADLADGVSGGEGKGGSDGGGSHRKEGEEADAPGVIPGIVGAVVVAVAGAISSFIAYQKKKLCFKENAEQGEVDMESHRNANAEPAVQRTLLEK
Method: The initial binding screening of the NCI/DTP chemical libraries was performed on a Biacore T200 instrument at room temperature using a neutravidin-coated CM5 chip (GE Healthcare Bio-Sciences) coupled with biotinylated CD99-ECD on one flow cell at levels of ˜3,000 response units (RU). A negative control protein, Ly6k was immobilized on another flow cell of the same chip (˜11,000 RU), and the first flow cell was left empty for reference subtraction due to nonspecific binding. Analytes were diluted in HBS—P buffer [10 mmol/L HEPES, pH 7.4, 150 mmol/L NaCl, % 0.05 (v/v) surfactant P20], and were injected individually over all flow cells. The running buffer contained appropriate concentrations of DMSO in HBS—P to match the DMSO level of the samples. Kinetic studies for antibody- or compound-CD99 interactions were performed in a Biacore T200 instrument. Purified recombinant human full-length CD99 produced in HEK293 cells was purchased from Origene (Rockville, Md.) (#TP304056). The recombinant human full-length CD99 was immobilized on a CM5 sensor chip by the amine-coupling method in sodium acetate buffer, pH 4.0 (˜10,000 RU). The first flow cell was left empty for background signal subtraction. Kinetic characterization of the interactions was done by injecting increasing concentrations of analytes as indicated over CD99-captured and control surface. KD (equilibrium dissociation constant) values were obtained using BiaEvaluation software (version 1.0) (Biacore) (GE Healthcare). All kinetic experiments were conducted in HBS—P buffer, which contained 1% (v/v) DMSO in case of compounds.

[2] = molecular target: T2, CD99-ECD (extracellular domain of human CD99) (Homo sapiens, UniProt P14209); experiment: SPR binding, CD99-ECD purified from bacteria
T2 construct: the extracellular domain (Asp23-Asp122) of human CD99; made in house; host or cells: Escherichia coli BL21 (DE3)
T2 sequence (P14209 23-122): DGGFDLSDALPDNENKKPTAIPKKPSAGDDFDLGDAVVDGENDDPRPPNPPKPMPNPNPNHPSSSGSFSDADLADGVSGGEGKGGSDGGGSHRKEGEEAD
From the text: The Champion™ pET104 BioEase™ Gateway® Expression System (Invitrogen (Carlsbad, Calif.)) was used to produce CD99-ECD fused with a N-terminal biotin tag, as directed by the manufacturer's instructions. Briefly, the DNA sequence encoding the extracellular domain (Asp23-Asp122) of human CD99 was amplified by PCR using pcDNA3.1 expression vector (Life Technologies (Carlsbad, Calif.)) carrying the full-length human CD99 cDNA transcript variant 1 as template. The primers were designed to include an additional C-terminal 6×His tag in the protein. The PCR product was gel purified with a QIAquick gel extraction kit (Qiagen (Hilden, Germany)) and subcloned into the pDONR 221 entry vector. The entry clone was then subjected to a recombination reaction with pET104.1-DEST destination vector, an expression vector with a N-terminal BioEase tag. The presence of an insert was confirmed by DNA sequencing.
CD99-ECD was expressed in Escherichia coli BL21 (DE3) cells. A saturated overnight culture of cells was diluted by 20-fold into fresh LB medium containing 100 μg/mL ampicillin. To induce the expression of CD99-ECD, cells were grown to OD600nm 0.5-0.7 at 37° C. and induced by the addition of isopropyl-β-D-thiogalactopyranoside to a final concentration of 1 mmol/L. The cultures were grown for an additional 3 h at 37° C. Cells were harvested by centrifugation at 8,000×g for 15 min, resuspended in 50 mmol/L sodium phosphate buffer, pH 7.4, containing 500 mmol/L NaCl, 10 mmol/L imidazole and 1 Complete EDTA-free protease inhibitor tablet/50 mL (Roche Diagnostics), and lysed by sonication. […] Protein fractions were finally eluted with a linear gradient of imidazole (10 to 1000 mmol/L) in the same buffer. The purity of the protein was assessed by SDS-PAGE followed by Coomassie staining. The eluted fractions were stored at −80° C. for further use. […]

[3] = system: ES cell lines; experiment: Cell viability IC50 panel (WST-1 or MTT), ES cell lines; assay type: cell-based, human; details: for IC50: Homo sapiens, 48 h, read-out: average IC50 concentration for ES cell lines; for IC50 concentrations, ES cell lines: all ES cell lines except A673; for increased sensitivity of ES compared to non-ES cell lines: ratio of average IC50 non-ES vs ES
[4] = system: SKES-1 ES cells; experiment: Cell viability IC50, SKES-1; assay type: cell-based; details: Homo sapiens, SK-ES1
Method: (§1) The plate was installed into the RTCA system, and the electrical impedance (represented as cell index) was measured every 10 min.
(§2) To investigate the relationship between the level of CD99 expression and drug sensitivity, the endogenous expression of CD99 was determined in a panel of 9 ES and 13 non-ES cell lines. The recombinant purified CD99-ECD protein was used to generate standard curves for immunoquantification of CD99 expression by immunoblotting (FIGS. 6B and 6C).

[5] = system: IOR/CAR ES cells; experiment: Cell viability IC50, IOR/CAR; assay type: cell-based; details: Homo sapiens
Method: as §1, §2

[6] = system: IOR/MOS OS cells; experiment: Cell viability IC50, IOR/MOS; assay type: cell-based; details: Homo sapiens
Method: as §1, §2

[7] = system: RH1 rhabdomyosarcoma cells; experiment: Cell viability IC50, RH1; assay type: cell-based; details: Homo sapiens, RH1 (RM)
Method: as §1, §2

[8] = system: RH30 rhabdomyosarcoma cells; experiment: Cell viability IC50, RH30; assay type: cell-based; details: Homo sapiens; RH30 (RM)
Method: as §1, §2

[9] = system: TC-71, 6647 and RDES ES cells; experiment: Cell cycle and cell death analysis by flow cytometry, ES cells; assay type: cell-based, human; details: 48 h; for hypodiploid sub-G1 peak: only in ES cells compared with U-2 OS
Method: For the evaluation of cell cycle, cell cultures were incubated with 10 μmol/L bromodeoxyuridine (BrdU) (Sigma-Aldrich) for 1 h in a CO2 atmosphere at 37° C. Harvested cells were fixed in ice-cold 70% ethanol for 30 min. After DNA denaturation with 2 N HCl for 30 min at room temperature, cells were washed with 0.1 M Na2B4O7, pH 8.5 and processed for indirect immunofluorescence staining, using α-BrdU (BD Biosciences (San Jose, Calif.)) diluted 1:4 as a primary MAb and α-mouse FITC (1:100—Thermo Scientific (Waltham, Mass.)) as a secondary antibody. After treatment with 0.5 mg/ml RNase and staining with 20 μg/ml propidium iodide, cells were and analyzed by flow cytometry (FACSCalibur; Becton Dickinson (Franklin Lakes, N.J.)) for cell cycle evaluation and for assessing cell death by DNA content analysis.

| SMILES | Kd [1] | Kd [2] | IC50 [3] | IC50 concentrations, ES cell lines [3] | increased sensitivity of ES compared to non-ES cell lines [3] | IC50 [4] | IC50 [5] | IC50 [6] | IC50 [7] | IC50 [8] | cell cycle effect ([9]; ES cells) | hypodiploid sub-G1 peak [9] |
| --- | --- | --- | --- | --- | --- | --- | --- | --- | --- | --- | --- | --- |
| Nc1nc(Cl)nc2c1ncn2[C@H]1C[C@H](O)[C@@H](CO)O1 [cladribine] | 3800 ± 3300 nM | 3800 ± 2400 nM | 1090 ± 1850 nM | submicromolar | 18 fold | 430 nM | 660 nM | > 30000 nM | 900 nM | 3260 nM | cell cycle arrest in S phase | significant increase |
| Nc1nc(Cl)nc2c1ncn2[C@@H]1O[C@H](CO)[C@@H](O)[C@@H]1F [clofarabine] | 5300 ± 3200 nM | 4600 ± 3200 nM | 440 ± 440 nM | submicromolar | 31 fold | 300 nM | 290 nM | > 10000 nM | 200 nM | > 10000 nM | – | significant increase |
